The results in this text go back to patent US20120258174A1, “Methods for Treating Bacterial Infection” (Innocoll Technologies Limited, priority 2011, published 2012).

The structures appear in SMILES notation.

This assay relates to organisms isolated from the infected wounds at baseline. The assay is described as follows: Gentamicin MIC testing against all isolated pathogens up to 1024 μg/mL. Format: cell-based. The settings on record: 87 of 95 organisms isolated at baseline. As to the method:
Minimum inhibitory concentration (MIC) testing was performed on all isolated pathogens to determine susceptibility to systemic concentrations of levofloxacin, linezolid, vancomycin and oxacillin for gram-positive species and levofloxacin, aztreonam and piperacillin/tazobactam for gram-negative species. Definitive gentamicin MIC testing against all isolated pathogens up to 1024 μg/mL to mimic high local concentrations were also performed.

As to `CN[C@@H]1[C@@H](O)C(O[C@@H]2[C@@H](O)[C@H](O[C@H]3O[C@H]([C@@H](C)NC)CC[C@H]3N)[C@@H](N)C[C@H]2N)OC[C@]1(C)O` (stereo partly drawn) [gentamicin, (3R,4R,5R)-2-{[(1S,2S,3R,4S,6R)-4,6-diamino-3-{[(2R,3R,6S)-3-amino-6-[(1R)-1-(methylamino)ethyl]oxan-2-yl]oxy}-2-hydroxycyclohexyl]oxy}-5-methyl-4-(methylamino)oxane-3,5-diol], the “organisms whose gentamicin MIC would be exceeded by a local concentration of up to 1000 μg/mL” value was determined as 92%.
